Data: patent US20040052750A1, “Compositions for prevention and alleviation of skin wrinkles” (priority 2000, published 2004)

How the values were obtained:
hairless mice [1] = assay: Inhibiting the generation of wrinkles in hairless mice (simulated sunlight); assay type: in vivo; conditions: 10 per group
Procedure: 6-week hairless mice were placed into 21 experimental groups and 3 control groups, with 10 rats per group. […] The experimental protocol in detail is as follows. Hairless mice were radiated using simulated sunlight at a dose of 2 MED (double Minimal Erythema Dose) 3 days a week for […], thereby generating wrinkles. Respective active ingredients or the solvent only were applied twice every day (specifically, on radiation days, the application was performed at 30 min before and after the radiation), at a volume of 100 μl each for 10 weeks from the first radiation day. Degrees of inhibition of generated wrinkles were determined. The determination was performed by visual observation with naked eyes and photography.

hairless mice [2] = assay: Alleviating photo-induced wrinkles in hairless mice; assay type: in vivo; conditions: twice a day for 6 weeks, 10 per group
Procedure: Mice were placed into 21 experimental groups and 3 control groups, with 10 rats per group. […] The experimental protocol is as follows. Hairless mice were radiated using a simulated sunlight at a dose of 2 MED (double Minimal Erythema Dose) 3 days a week for 10 weeks, thereby generating wrinkles. Then, respective active ingredients or the solvent only were applied at a volume of 100 μl each, twice a day for 6 weeks. Degrees of wrinkle reduction were determined. The determination was performed by visually observing the compound-applied region with naked eyes, and the region was photographed. The degrees of alleviation of wrinkles in the compound-treatment groups (experimental groups) were compared with those of the control group and were determined as one of 4 stages, that is, none (Score 0), slight (Score 1), moderate (Score 2) and high (Score 3), and the corresponding mice were counted.

[3] = system: fibroblasts derived from a human; assay: Promoting collagen production in fibroblasts (3H-proline incorporation into collagenase-sensitive protein); assay type: cell-based; conditions: control = 100%
Procedure: The experimental protocol in detail is as follows.
Human-derived fibroblasts were transferred to a 24 well plate and cultured in a medium containing 10% fetal bovine serum (FBS) for 24 hours, followed by washing twice with phosphate buffered saline. […] After the incubation was terminated, cells from each group were harvested and two fractions of each culture were prepared. One fraction from each culture was treated with collagenase. To all fractions was added trichloroacetic acid to precipitate proteins. The amount of radioactivity incorporated into collagenase-sensitive protein was measured and compared with that of the other fraction which was not treated with collagenase. The difference in radioactivity was attributed to the promoting effect of the compound.

rat skin = assay: Promotion of collagen production in rat skin (hydroxyproline in implanted PVA sponge); assay type: in vivo, SD rats; conditions: 200 μl every day for 10 days, control = 100%
Procedure: In brief, 5-week male SD rats were grouped with 5 rats per group. The rats were each incised 1 cm in the center of their abdomens and PVA sponges (Unipoint ind.) were inserted therein. After suturing, as for experimental groups, respective active ingredients to be examined were applied to the PVA sponge-embeded regions i n a volume o f 200 μl every day for 10 days. Upon autopsy, the PVA sponge was removed to quantify hydroxyproline. The PVA sponge was added with 4 ml of 6 N HCl, hydrolized at 130° C. for 3 hours and was subjected to complete drying. 50 μl of methanol was added and the solution was incubated at 110° C. until HCl was removed. 1.2 ml of 50% isopropanol was added to dissolve the remaining precipitate. 200 μl of chloramine-T (sodium p-toluensulfochloramide trihydrate) solution was added while stirring, and let stand for 10 min. After adding 1.2 ml of Ehrlich reagent and mixing, the solution was incubated at 50° C. for 90 min. The resulting solution was cooled to room temperature and absorbance at 558 nm was measured. Hydroxyproline standard solutions were prepared by dissolving 1 mg hydroxyproline in 1 ml HCl and diluting it to concentrations of 0, 0.2, 0.4, 0.8, 1 mg each relative to 25 μl of 6 N HCl. The standard solutions were hydrolyzed at 130° C. for 3 hours. The quantified value of hydroxyproline, relative to hydroxyproline value (100%) of the control group which was applied with solvent only, are shown in Table 2.

SMILES	Inhibition of wrinkles, Score 0 (none) (hairless mice [1]; 10^-3 M)	Inhibition of wrinkles, Score 1 (slight) (hairless mice [1]; 10^-3 M)	Inhibition of wrinkles, Score 2 (moderate) (hairless mice [1]; 10^-3 M)	Inhibition of wrinkles, Score 3 (high) (hairless mice [1]; 10^-3 M)	Inhibition of wrinkles, Score 0 (none) (hairless mice [1]; 10^-5 M)	Inhibition of wrinkles, Score 1 (slight) (hairless mice [1]; 10^-5 M)	Inhibition of wrinkles, Score 2 (moderate) (hairless mice [1]; 10^-5 M)	Inhibition of wrinkles, Score 3 (high) (hairless mice [1]; 10^-5 M)	Inhibition of wrinkles, Score 0 (none) (hairless mice [1]; 10^-8 M)	Inhibition of wrinkles, Score 1 (slight) (hairless mice [1]; 10^-8 M)	Inhibition of wrinkles, Score 2 (moderate) (hairless mice [1]; 10^-8 M)	Inhibition of wrinkles, Score 3 (high) (hairless mice [1]; 10^-8 M)	Reduction of wrinkles, Score 0 (none) (hairless mice [2]; 10^-3 M)	Reduction of wrinkles, Score 1 (slight) (hairless mice [2]; 10^-3 M)	Reduction of wrinkles, Score 2 (moderate) (hairless mice [2]; 10^-3 M)	Reduction of wrinkles, Score 3 (high) (hairless mice [2]; 10^-3 M)	Reduction of wrinkles, Score 0 (none) (hairless mice [2]; 10^-5 M)	Reduction of wrinkles, Score 1 (slight) (hairless mice [2]; 10^-5 M)	Reduction of wrinkles, Score 2 (moderate) (hairless mice [2]; 10^-5 M)	Reduction of wrinkles, Score 3 (high) (hairless mice [2]; 10^-5 M)	other results
CCOC(=O)C1=C(COCCN)NC(C)=C(C(=O)OC)C1c1ccccc1Cl (stereo not shown) [Amoldipine]	0 number of mice	0 number of mice	2 number of mice	8 number of mice	0 number of mice	1 number of mice	3 number of mice	6 number of mice	0 number of mice	1 number of mice	1 number of mice	8 number of mice	0 number of mice	1 number of mice	3 number of mice	6 number of mice	0 number of mice	2 number of mice	2 number of mice	6 number of mice	Reduction of wrinkles, Score 0 (none) (hairless mice [2]; 10^-8 M): 0 number of mice; Reduction of wrinkles, Score 1 (slight) (hairless mice [2]; 10^-8 M): 1 number of mice; Reduction of wrinkles, Score 2 (moderate) (hairless mice [2]; 10^-8 M): 1 number of mice; Reduction of wrinkles, Score 3 (high) (hairless mice [2]; 10^-8 M): 8 number of mice; Effect of promoting collagen production in fibroblasts (rate of collagen production) ([3]; 10^-5 M): 355.26%; Effect of promoting collagen production in fibroblasts (rate of collagen production) ([3]; 10^-6 M): 330.42%; Effect of promoting collagen production in fibroblasts (rate of collagen production) ([3]; 10^-7 M): 280.07%; Effect of promoting collagen production in fibroblasts (rate of collagen production) ([3]; 10^-8 M): 182.42%; Effect of promoting collagen production in animal skin (hydroxyproline value vs control) (rat skin; 10^-5 M): 181.12%; Effect of promoting collagen production in animal skin (hydroxyproline value vs control) (rat skin; 10^-6 M): 163.84%; Effect of promoting collagen production in animal skin (hydroxyproline value vs control) (rat skin; 10^-7 M): 149.65%; Effect of promoting collagen production in animal skin (hydroxyproline value vs control) (rat skin; 10^-8 M): 132.50%
COc1ccc([C@@H]2Sc3ccccc3N(CCN(C)C)C(=O)[C@@H]2OC(C)=O)cc1 [Diltiazem]	0 number of mice	1 number of mice	2 number of mice	7 number of mice	0 number of mice	2 number of mice	2 number of mice	6 number of mice	0 number of mice	2 number of mice	2 number of mice	6 number of mice	0 number of mice	0 number of mice	2 number of mice	8 number of mice	0 number of mice	1 number of mice	2 number of mice	7 number of mice	Reduction of wrinkles, Score 0 (none) (hairless mice [2]; 10^-8 M): 0 number of mice; Reduction of wrinkles, Score 1 (slight) (hairless mice [2]; 10^-8 M): 1 number of mice; Reduction of wrinkles, Score 2 (moderate) (hairless mice [2]; 10^-8 M): 2 number of mice; Reduction of wrinkles, Score 3 (high) (hairless mice [2]; 10^-8 M): 7 number of mice; Effect of promoting collagen production in fibroblasts (rate of collagen production) ([3]; 10^-5 M): 362.12%; Effect of promoting collagen production in fibroblasts (rate of collagen production) ([3]; 10^-6 M): 321.23%; Effect of promoting collagen production in fibroblasts (rate of collagen production) ([3]; 10^-7 M): 276.25%; Effect of promoting collagen production in fibroblasts (rate of collagen production) ([3]; 10^-8 M): 199.15%; Effect of promoting collagen production in animal skin (hydroxyproline value vs control) (rat skin; 10^-5 M): 175.23%; Effect of promoting collagen production in animal skin (hydroxyproline value vs control) (rat skin; 10^-6 M): 157.45%; Effect of promoting collagen production in animal skin (hydroxyproline value vs control) (rat skin; 10^-7 M): 136.76%; Effect of promoting collagen production in animal skin (hydroxyproline value vs control) (rat skin; 10^-8 M): 122.44%
